Test results reported in ChEMBL document CHEMBL4483862, “Open-source discovery of chemical leads for next-generation chemoprotective antimalarials” (2018).

System: Plasmodium berghei
Test: Luciferase/luciferin-expressing antifolate-resistant parasites were used to infect a culture of HepG2 cells that were pre-incubated with compounds. Infected hepatocytes emit light due to the luciferase reaction. Assay results are presented as the percent inhibition of light emission compared to control. […]
Assay type: functional
Conditions: sporozoite; for IC50: read-out: LUCIFERASE INFECTION ASSAY - IC50; for IC90: read-out: LUCIFERASE INFECTION ASSAY - IC90

Compound | IC50 [µM] | IC90 [µM]
CCOC(=O)c1sc(NC(=O)c2ccc(C)s2)cc1C | > 10 | > 10
Cc1nc(N2N=C3/C(=C/c4ccc(F)cc4)CCCC3C2c2ccc(F)cc2)sc1C(=O)N(C)C (stereo not given) | > 10 | > 10
O=C(COC(=O)c1cccnc1Cl)NCCc1ccc(F)cc1 | > 10 | > 10
Cc1cc(C)nc(N/N=C2/CCCC/C2=C\c2ccccc2)n1 | > 10 | > 10
Fc1ccc(NC(=S)NN=C2c3ccccc3-c3ccccc32)c(F)c1 | > 10 | > 10
Cc1ccc(/N=C/c2cc3ccccc3nc2Sc2ccc(C)cc2)cc1 | > 10 | > 10
O=C(Nc1ccccc1)C1=C(N2CCOCC2)/C(=C/c2ccc(Br)cc2)CC1 | > 10 | > 10
N#C/C(=C\c1ccc(OCc2ccccc2)c(OCc2ccccc2)c1)c1nnc2n1CCCCC2 | > 10 | > 10
CNC(=O)C(Sc1nnc(Nc2ccc(C(C)C)cc2)s1)C(C)=O (stereo not given) | > 10 | > 10
Cc1c(C2=CCCCC2)c2ccccn2c1C(=O)c1cc2c(C)nn(-c3ccccc3)c2s1 | > 10 | > 10
O=C(Cn1cc(I)c(=O)c(I)c1)OCC(=O)N1CCCc2ccccc21 | > 10 | > 10
Brc1ccc(/C=N/c2ccccc2N2CCOCC2)cc1 | > 10 | > 10
Cc1cc(NC(=O)C(c2ccc(Cl)cc2)C(C)C)ccc1Br (stereo not given) | > 10 | > 10
CCC(C)(C)c1ccc(Oc2ccc(NC(=O)CSc3cccc[n+]3[O-])cc2)cc1 | > 10 | > 10
CCOC(=O)c1ccc(-n2c(C)cc(/C=C(\C#N)c3nc4ccccc4[nH]3)c2C)cc1 | > 10 | > 10
C(=N\c1nc2ccccc2nc1N1CCOCC1)/N1CCN(C(c2ccccc2)c2ccccc2)CC1 | > 10 | > 10
Cc1nn(-c2ccccc2)c(N2CCCCC2)c1/C=N/Nc1ccc(C(F)(F)F)cn1 | > 10 | > 10
O=C(CC12CC3CC(CC(C3)C1)C2)NN=CC1C(=O)N(Cc2ccccc2)C(=O)c2ccccc21 (stereo not given) | > 10 | > 10
Fc1cccc(F)c1/C=N/c1ccccc1N1CCOCC1 | > 10 | > 10
c1ccc(-c2csc3nc(-c4ccccn4)nc(NC4CC4)c23)cc1 | 2.32 | 4.93

Compound | IC50 [µM] | IC90 [µM]
N#Cc1ccc(C=C(C(=O)NCc2ccccc2)C(=O)NCc2ccccc2)cc1 | > 10 | > 10
O=S(=O)(N=C1c2ccccc2/C(=N/S(=O)(=O)c2ccc(Cl)cc2)C2C3C=CC(CC3)C12)c1ccc(Cl)cc1 (stereo not given) | 8.44 | > 10
Cc1c(Cl)cccc1N=C(SCC(=O)N(C)C1CCCCC1)C(C#N)c1nc2ccccc2s1 (stereo not given) | > 10 | > 10
N#CCCn1cc(/C=N/Nc2nc3ccccc3s2)c(-c2ccc(F)cc2)n1 | > 10 | > 10
CCC1CCCCN1C(=O)COC(=O)c1cc(C(C)(C)C)cc(C(C)(C)C)c1 (stereo not given) | > 10 | > 10
C=CCNC(=S)N/N=C/C1=C(N2CCOCC2)C(=C/c2ccc(Cl)cc2Cl)/CC1 | > 10 | > 10
CCN(Cc1ccccc1)S(=O)(=O)c1cc(C(=O)OCc2ccccc2Cl)ccc1OC | > 10 | > 10
O=C1OC(C23CC4CC(CC(C4)C2)C3)=N/C1=C\c1ccc(N2CCOCC2)cc1 | > 10 | > 10
Cc1nn(-c2ccccc2)c(Cl)c1/C=N/N1CCN(c2ccc(Cl)cc2)CC1 | > 10 | > 10
O=C(COc1cccc(Br)c1)N/N=C/C1=C(N2CCOCC2)C(=C/c2ccc(Cl)cc2)/CC1 | > 10 | > 10
O=C1OC(C23CC4CC(CC(C4)C2)C3)=N/C1=C\c1ccc(Cl)c([N+](=O)[O-])c1 | > 10 | > 10
C/C(=N\Nc1c(Cl)cc(Cl)cc1Cl)c1ccc(N2CCOCC2)cc1 | 4.84 | > 10
CN1/C(=C\C=N\NC(=O)c2cnccn2)C(C)(C)c2ccccc21 | > 10 | > 10
Cc1cc(C)nc(N/N=C/c2c(C)nn(-c3ccccc3)c2Sc2nc3ccccc3s2)n1 | > 10 | > 10
O=C(O)c1cc(N/N=C(\c2ccncc2)c2ccc([N+](=O)[O-])cc2)cc(C(=O)O)c1 | > 10 | > 10
CC(=O)c1cc2c(N)c(C(=O)OCc3cccc4ccccc34)sc2nc1C | > 10 | > 10
C/N=c1\scc(-c2ccc(OC(F)F)cc2)n1/N=C/c1ccccc1[N+](=O)[O-] | > 10 | > 10
O=C1Nc2ccc(Br)cc2/C1=N\N=C\c1cc([N+](=O)[O-])ccc1OC(F)F | > 10 | > 10
O=C(Cn1cnc2scc(-c3ccccc3)c2c1=O)Nc1ccc([N+](=O)[O-])cc1 | > 10 | > 10
COc1ccc(NCc2csc(-c3ccccc3)n2)cc1Cl | > 10 | > 10

Compound | IC50 [µM] | IC90 [µM]
Cn1ccnc1/C(=N\NC(=O)c1sc2ccccc2c1Cl)c1cccc([N+](=O)[O-])c1 | > 10 | > 10
COc1ccc(C(=O)c2sc(Nc3ccccc3C)c(C(=O)Nc3ccccc3C)c2N)cc1 | 5.95 | > 10
c1csc(-c2nnc(Sc3ncnc4sccc34)[nH]2)c1 | > 10 | > 10
Cc1cc(C)c(N/C=C2/C(=O)N(c3ccccc3Cl)C(=O)c3ccccc32)c(C)c1 | > 10 | > 10
Cc1cc(/C=C(\C#N)c2nc3ccccc3s2)c(C)n1-c1ccc(F)cc1 | > 10 | > 10
CCN(CC)c1ccc(/C=C2\CCC(/C=N/NC(=O)NC3CCCCC3)=C2N2CCOCC2)cc1 | > 10 | > 10
Cc1occc1C(=O)N/N=C/C=C1\N(C)c2ccccc2C1(C)C | > 10 | > 10
N#CC(C(=O)COC(=O)COc1cc(Cl)c(Cl)cc1Cl)=C1Nc2ccccc2N1 | > 10 | > 10
COc1ccc(-c2nn(-c3ccccc3)cc2/C=C/C(=O)N2CCc3ccccc32)cc1OC | > 10 | > 10
COc1ccc(C2CC(c3ccccc3)=NN2C(=O)COc2c(Cl)cc(Cl)c3ccc(C)nc23)cc1 (stereo not given) | > 10 | > 10
COc1ccccc1NC(=S)N/N=C(C)/C=C/C1C(C)=CCCC1(C)C (stereo not given) | > 10 | > 10
CCOC(=O)c1c(C)[nH]c(N=Nc2cccc(C(F)(F)F)c2)c1C | > 10 | > 10
CCN(C(=O)COC(=O)c1nc(-c2ccccc2)n2c1CCCCC2)c1ccccc1 | > 10 | > 10
O=C1/C(=C/Nc2ccccc2O)c2ccccc2C(=O)N1c1ccccc1Cl | > 10 | > 10
Cc1c(/C=N/N)c2ccccn2c1C#N | > 10 | > 10
CCCn1c(NC(=O)c2sc3ccccc3c2Cl)nc2ccccc21 | > 10 | > 10
Cc1ccc(-n2c(C)cc(/C=C(\C#N)c3nc4ccccc4s3)c2C)cc1C | > 10 | > 10
COc1ccccc1NCC(=O)N/N=C1/C(=O)Nc2ccc(C(C)C)cc21 | > 10 | > 10
FC(F)(F)/C(=N\C1(C(Cl)(Cl)Cl)Oc2ccccc2O1)NCc1ccco1 | > 10 | > 10
COC(=O)c1c(-c2cccs2)csc1NC(=O)CSc1cc(C)c2ccccc2n1 | > 10 | > 10
